In brackets after ≈: the same amount, converted by molar mass. Activity calls are given as the source filed them. No cut-off for these calls is given here.
Tests used:
[1] = test system: Mycobacterium tuberculosis; assay: Antibacterial activity against Mycobacterium tuberculosis H37Rv assessed as inhibition of bacterial growth incubated for 7 days by alamar blue assay; format: functional; conditions: 168 h, time 7 day
[2] = test system: Enterococcus faecalis; assay: Antibacterial activity against Enterococcus faecalis ATCC29212 assessed as inhibition of bacterial growth incubated for 18 hrs by microdilution broth assay; format: functional
[3] = test system: Bacillus subtilis; assay: Antibacterial activity against Bacillus subtilis ATCC6633 assessed as inhibition of bacterial growth incubated for 18 hrs by microdilution broth assay; format: functional
[4] = Cytotoxicity against African green monkey Vero cells incubated for 48 hrs by MTT assay; format: toxicity, cell-based, Chlorocebus sabaeus
[5] = test system: Staphylococcus aureus; assay: Antibacterial activity against vancomycin intermediate Staphylococcus aureus ATCC700699 assessed as inhibition of bacterial growth incubated for 7 days by alamar blue assay; format: functional; conditions: ATCC700699, 168 h, time 7 day
[6] = test system: Enterococcus; assay: Antibacterial activity against vancomycin resistant Enterococcus clinical isolate 20-1 assessed as inhibition of bacterial growth incubated for 7 days by alamar blue assay; format: functional; conditions: clinical isolate 20-1, 168 h, time 7 day
[7] = test system: Staphylococcus aureus; assay: Antibacterial activity against Linezolid resistant Staphylococcus aureus clinical isolate 20-1 assessed as inhibition of bacterial growth incubated for 7 days by alamar blue assay; format: functional; conditions: clinical isolate 20-1, 168 h, time 7 day
[8] = test system: Staphylococcus aureus; assay: Antibacterial activity against Linezolid resistant Staphylococcus aureus clinical isolate 20-2 assessed as inhibition of bacterial growth incubated for 7 days by alamar blue assay; format: functional; conditions: clinical isolate 20-2, 168 h, time 7 day
[9] = test system: Enterococcus faecalis; assay: Antibacterial activity against Linezolid resistant Enterococcus faecalis clinical isolate 20-2 assessed as inhibition of bacterial growth incubated for 7 days by alamar blue assay; format: functional; conditions: clinical isolate 20-2, 168 h, time 7 day
[10] = Metabolic stability in ICR mouse liver microsomes assessed as compound remaining at 10 uM incubated for 60 mins in absence of NADPH by LC-MS/MS analysis; format: ADME, Microsome; conditions: read-out: Stability
[11] = Metabolic stability in human liver microsomes assessed as compound remaining at 10 uM incubated for 60 mins in absence of NADPH by LC-MS/MS analysis; format: ADME, Microsome; conditions: read-out: Stability
[12] = Terminal half life in BALB/c mouse at 10 mg/kg,po administration measured upto 24 hrs by LC-MS/MS analysis; format: ADME, organism-based; conditions: in vivo, read-out: beta t1/2 (converted)
[13] = Cmax in BALB/c mouse at 1 mg/kg,iv administration measured upto 24 hrs by LC-MS/MS analysis; format: ADME, organism-based; conditions: in vivo
[14] = Cmax in BALB/c mouse at 10 mg/kg,po administration measured upto 24 hrs by LC-MS/MS analysis; format: ADME, organism-based; conditions: in vivo
[15] = AUC (0 to t) in BALB/c mouse at 1 mg/kg,iv administration measured upto 24 hrs by LC-MS/MS analysis; format: ADME, organism-based; conditions: in vivo
[16] = MRT (0 to infinity) in BALB/c mouse at 1 mg/kg,iv administration measured upto 24 hrs by LC-MS/MS analysis; format: ADME, organism-based; conditions: in vivo
[17] = Volume of distribution in BALB/c mouse at 1 mg/kg,iv administration measured upto 24 hrs by LC-MS/MS analysis; format: ADME, organism-based; conditions: in vivo
[18] = Oral bioavailability in BALB/c mouse at 10 mg/kg administration measured upto 24 hrs by LC-MS/MS analysis; format: ADME, organism-based; conditions: BALB/c, in vivo
[19] = test system: Staphylococcus aureus; assay: Antibacterial activity against daptomycin/methicillin resistant Staphylococcus aureus assessed as inhibition of bacterial growth incubated for 7 days by alamar blue assay; format: functional; conditions: 168 h, time 7 day
[20] = test system: Staphylococcus aureus; assay: Antibacterial activity against vancomycin resistant Staphylococcus aureus assessed as inhibition of bacterial growth incubated for 7 days by alamar blue assay; format: functional; conditions: 168 h, time 7 day
[21] = test system: Staphylococcus aureus; assay: Inhibition of protein synthesis in Staphylococcus aureus ATCC 29213 by translation assay; format: functional, organism-based
[22] = test system: Staphylococcus aureus; assay: Antibacterial activity against methicillin resistant Staphylococcus aureus ATCC 33592 infected in cyclophosphamide-induced immunosuppressed Kunming mouse assessed as increase in white blood cell at 25 to 50 mg/kg,po administration measured after 7 days by Giemsa staining based analysis; format: functional, organism-based; conditions: dose 25-50 mg/kg, time 7.0 day
[23] = test system: Staphylococcus aureus; assay: Antibacterial activity against methicillin resistant Staphylococcus aureus ATCC 33592 infected in cyclophosphamide-induced immunosuppressed Kunming mouse assessed as increase in IL-10 level at po administration measured after 24 hrs by ELISA; format: functional, organism-based
[24] = test system: Staphylococcus aureus; assay: Antibacterial activity against methicillin resistant Staphylococcus aureus ATCC 33592 infected in cyclophosphamide-induced immunosuppressed Kunming mouse assessed as reduction in histopathological change in heart at 10 to 50 mg/kg,po administration measured after 24 hrs by hematoxylin and eosin staining based microscopy; format: functional, organism-based; conditions: dose 10-50 mg/kg
[25] = test system: Staphylococcus aureus; assay: Antibacterial activity against methicillin resistant Staphylococcus aureus ATCC 33592 infected in cyclophosphamide-induced immunosuppressed Kunming mouse assessed as reduction in inflammatory cell infiltration in liver at 50 mg/kg,po administration measured after 24 hrs by hematoxylin and eosin staining based microscopy; format: functional, organism-based
[26] = test system: Staphylococcus aureus; assay: Antibacterial activity against methicillin resistant Staphylococcus aureus ATCC 33592 infected in cyclophosphamide-induced immunosuppressed Kunming mouse assessed as reduction in inflammatory cell infiltration in kidney at 50 mg/kg,po administration measured after 24 hrs by hematoxylin and eosin staining based microscopy; format: functional, organism-based
[27] = test system: Staphylococcus aureus; assay: Antibacterial activity against methicillin resistant Staphylococcus aureus ATCC 33592 infected in cyclophosphamide-induced immunosuppressed Kunming mouse assessed as reduction in histopathological change in spleen at 50 mg/kg,po administration measured after 24 hrs by hematoxylin and eosin staining based microscopy; format: functional, organism-based
[28] = test system: Staphylococcus aureus; assay: Antibacterial activity against methicillin resistant Staphylococcus aureus ATCC 33592 infected in cyclophosphamide-induced immunosuppressed Kunming mouse assessed as reduction in congestion in spleen at 10 mg/kg,po administration measured after 24 hrs by hematoxylin and eosin staining based microscopy; format: functional, organism-based
[29] = test system: Staphylococcus aureus; assay: Antibacterial activity against methicillin resistant Staphylococcus aureus ATCC 33592 infected in cyclophosphamide-induced immunosuppressed Kunming mouse assessed as reduction in histopathological change in lung at 25 to 50 mg/kg,po administration measured after 24 hrs by hematoxylin and eosin staining based microscopy; format: functional, organism-based; conditions: dose 25-50 mg/kg
[30] = test system: Cell membrane; assay: Disruption of cell membrane integrity in methicillin resistant Staphylococcus aureus ATCC 33592 assessed as increase in red fluorescence at 0.5 ug/ml incubated for 1 hr by […] and propidium iodide double staining based confocal microscopic analysis; format: cell membranes; conditions: dose 0.5 µg/ml
[31] = test system: Cell membrane; assay: Disruption of cell membrane integrity in Staphylococcus aureus ATCC 25923 assessed as increase in blue fluorescence at 0.5 ug/ml incubated for 1 hr by […] and propidium iodide double staining based confocal microscopic analysis; format: cell membranes; conditions: dose 0.5 µg/ml
[32] = test system: Cell membrane; assay: Disruption of cell membrane integrity in Staphylococcus aureus ATCC 25923 assessed as increase in red fluorescence at 1 ug/ml incubated for 1 hr by […] and propidium iodide double staining based confocal microscopic analysis; format: cell membranes; conditions: dose 1.0 µg/ml
[33] = test system: Cell membrane; assay: Disruption of cell membrane in methicillin resistant Staphylococcus aureus ATCC 33592 assessed as damage in bacterial cell envelope at 0.5 ug/ml incubated for 30 mins by Scanning electron microscopic analysis; format: cell membranes; conditions: dose 0.5 µg/ml
[34] = test system: Cell membrane; assay: Disruption of cell membrane in methicillin resistant Staphylococcus aureus ATCC 33592 assessed as cell surface perforation at 0.5 ug/ml incubated for 6 hrs by Scanning electron microscopic analysis; format: cell membranes; conditions: dose 0.5 µg/ml

Which MIC [1] does the source give for `CC(=O)NC[C@@H]1OC(=O)N2Cc3cc(-c4ccc(C#N)cc4)c(F)cc3O[C@@H]12` here?
Its MIC is 0.52 µg/mL (≈ 1.36 µM).

What about the MIC [2] of the same compound?
The MIC was 1 µg/mL (≈ 2.62 µM).

What about the MIC [3] of the same compound?
Its MIC is 0.032 µg/mL (≈ 0.0839 µM).

What about the IC50 at 48 h [4] of the same compound?
The IC50 at 48 h was 35 µg/mL (≈ 91.8 µM).

What about the MIC [5] of the same compound?
Its MIC is 0.5 µg/mL (≈ 1.31 µM).

What about the MIC [6] of the same compound?
Its MIC is 0.5 µg/mL (≈ 1.31 µM).

What about the MIC [7] of the same compound?
Its MIC is 8 µg/mL (≈ 21 µM).

What about the MIC [8] of the same compound?
The MIC was 8 µg/mL (≈ 21 µM).

What about the MIC [9] of the same compound?
The MIC was 1 µg/mL (≈ 2.62 µM).

What about the remaining at 1 h, 10 µM [10] of the same compound?
The remaining at 1 h, 10 µM was 101%.

And the remaining at 1 h, 10 µM [11]?
Its remaining at 1 h, 10 µM is 120%.

And the half-life [12]?
The half-life was 11.9 h.

And the Cmax [13]?
Its Cmax is 814 ng/mL.

And the Cmax [14]?
The Cmax was 4510 ng/mL.

What about the AUC(0-t) at 24 h [15] of the same compound?
The AUC(0-t) at 24 h was 5120 ng·h/mL.

What about the MRT inf [16] of the same compound?
Its MRT inf is 6.7 h.

What about the Vd [17] of the same compound?
The Vd was 1.94 L/kg.

And the bioavailability [18]?
Its bioavailability is 122%.

And the MIC [19]?
Its MIC is 1 µg/mL (≈ 2.62 µM).

And the MIC [20]?
The MIC was 1 µg/mL (≈ 2.62 µM).

What about the IC50 [21] of the same compound?
The IC50 was 1.5 µg/mL (≈ 3.93 µM).

And the Activity [22]?
Its Activity is “Active”.

And the Activity [23]?
The Activity was “Dose-Dependent Effect”.

And the Activity [24]?
Its Activity is “Active”.

What about the Activity [25] of the same compound?
Its Activity is “Active”.

What about the Activity [26] of the same compound?
Its Activity is “Active”.

What about the Activity [27] of the same compound?
Its Activity is “Active”.

What about the Activity [28] of the same compound?
The Activity was “Active”.

And the Activity [29]?
Its Activity is “Active”.

What about the Activity [30] of the same compound?
The Activity was “Active”.

What about the Activity [31] of the same compound?
Its Activity is “Active”.

What about the Activity [32] of the same compound?
The Activity was “Active”.

What about the Activity [33] of the same compound?
The Activity was “Active”.

What about the Activity [34] of the same compound?
The Activity was “Active”.
